{"source": "paper PMC5340040", "about": "(BMC Biochemistry, 2017)", "key": {"MgF-actin [1]": {"target": "T1, MgF-actin (Oryctolagus cuniculus, UniProt P68135)", "T1 construct": "MgF-actin was polymerized from CaATP-G-actin by 30 min incubation with 2 mM MgCl2 at 22 °C; tissue Pel-Freez Biologicals (Rogers, AR) (acetone powder); host or cells: rabbit back and leg skeletal muscle", "assay": "Extent of F-actin bundling by low speed centrifugation", "format": "biochemical, rabbit", "experimental": "CaATP-G-actin was stored in a buffer containing 5 mM TrisHCl, 0.2 mM CaCl2, 0.2 mM ATP, 0.5 mM β-mercaptoethanol, pH 8.0 (CaATP-G-buffer). MgF-actin was polymerized from CaATP-G-actin by 30 min incubation with 2 mM MgCl2 at 22 °C. MgF-actin was diluted for further treatments in MgF-buffer containing 5 mM 3-(N-morpholino) propanesulfonic acid (MOPS), 2 mM MgCl2, 0.2 mM ATP and 0.5 mM DTT, pH 7.4. The concentration of G- and F-actin was determined using the extinction coefficient E^1% 290 = 11.5 cm-^1. (The optical density of actin was measured in the presence of 0.5 M NaOH, which shifts the maximum of absorbance from 280 to 290 nm).\nExtent of actin polymerization and bundling was measured by high speed centrifugation at 129,151 x g for 2 h and by low speed centrifugation at 20,800 x g for 8 min, respectively. The centrifugations were carried out at 4 °C. The supernatants were separated by 12% sodium dodecyl sulfate polyacrylamide electrophoresis (SDS−PAGE) and analyzed by densitometry using the TINA 2.07d software.\nBundling was carried out at low ionic strength. a and b bundling kinetics of 4 μM F-actin was followed by light scattering change as described in Methods. […] Upper panels quantitative evaluation of bundling, lower panels, representative SDS-PAGE of the supernatants\nEffect of pH on bundling. […]"}, "MgF-actin [2]": {"target": "T1, MgF-actin", "assay": "Transglutaminase cross-linking to F-actin", "format": "binding, rabbit", "settings": "22 °C; for effect of phalloidin on extent of F-actin cross-linking: 4 μM F-actin, 8 μM Fl-peptide, 8 μM phalloidin, 0.3 mg/ml TGase, 30 min", "from_the_text": "Lower panels are representative SDS-PAGE-s. […] Lower panel, SDS-PAGE visualized by fluorescence\nUpper panel, quantitative evaluation of SDS-PAGE by densitometry. Lower panel Coomassie blue stained representative SDS-PAGE"}, "G-actin [3]": {"system": "G-actin", "assay": "Inhibition of TGase cross-linking to G-actin by NaCl, DNase1 and cofilin", "format": "binding, rabbit", "settings": "6 μM Fl-histatin, 4 μM G-actin; for effect of NaCl on cross-linking to G-actin: 0.3 mg/ml TGase, 1 min", "procedure": "Here we studied the effect of these agents on the cross-link formation between G-actin and histatins. In these experiments NaCl, histatins, TGase were added simultaneously to G-actin and incubated for 1 min only to avoid significant actin polymerization.\nSamples were treated with TGase for 1 min. Upper panel, evaluation of SDS-PAGE. Lower panel, representative SDS-PAGE visualized by Coomassie blue. b Inhibition of cross-linking by DNase1 and cofilin. Samples were treated with TGase for 5 min"}, "TG-G-actin [4]": {"system": "TG-G-actin", "assay": "Cross-linking to TGase pretreated G-actin (TG-G-actin) vs G-actin; cross-linking site", "format": "binding, rabbit", "settings": "4.5 μM Fl-histatin; for cross-linked product with TGase pretreated vs untreated G-actin: 4 μM G-actin or TG-G-actin, 0.3 mg/ml TGase, 30 min, 22 °C; for cross-linking site in the D-loop of G-actin: TG-G-actin (Gln41 blocked)", "procedure": "Preparation of TG-G-actin: 108 μM CaATP-G-actin was incubated with 4 mg/ml TGase at 4 °C for 24 h. After cross-linking samples were run on SDS-PAGE and evaluated by densitometry. Upper panel quantitative evaluation of SDS-PAGE by densitometry. Lower panel representative SDS-PAGE visualized by Coomassie blue"}, "[5]": {"system": "subtilisin / trypsin digested G-actin", "assay": "Cross-linking to subtilisin or trypsin fragments of G-actin", "format": "binding, rabbit", "settings": "4 μM G-actin, 6 μM Fl-histatin, 0.3 mg/ml TGase, 30 min, 22 °C; for cross-linking to subtilisin fragments (Asp1-Met47 N-terminal, Gly48-Phe375 C-terminal): 1.5 μg/ml subtilisin; for cross-linking to Tyr69-Arg372 C-terminal tryptic fragment: 20 μg/ml trypsin", "procedure": "Trypsin and subtilisin digestions were stopped by 40 μg/ml STI and 1 mM PMSF, respectively. Samples were run on SDS-PAGE. Left, lanes visualized by Coomassie blue; right, lanes visualized by fluorescence, marked by (*). Legend: (a) actin; (b) trypsin digested actin; (c) trypsin digested actin cross-linked with Fl-histatin-3 or Fl-histatin-5; (d) subtilisin digested actin; (e) subtilisin digested actin cross-linked with Fl-histatin-3 or Fl-histatin-5; nf), actin cross-linked with Fl-histatin-3 or Fl-histatin-5. a Fl-histatin-3-actin fragments cross-linked bands; b Fl-histatin-5-actin fragments cross-linked bands. Lane M, molecular weight marker"}, "CaATP-G-actin [6]": {"system": "CaATP-G-actin", "settings": "22 °C", "experimental": "The reaction was stopped by addition of 1 mM cysteamine. Samples were subjected to 12% SDS-PAGE, visualized by Coomassie blue or fluorescence and evaluated by densitometry.\nSamples were treated with TGase at 22 °C for 30 and run on SDS-PAGE and evaluated by densitometry as described in Methods.\nCross-linking with 0.3 mg/ml TGase for 30 min at 22 °C. Upper panel, quantitative evaluation of SDS-PAGE by densitometry."}, "G-actin [7]": {"system": "G-actin", "settings": "ref [6]; cited from earlier work"}, "CaATP-G-actin [8]": {"system": "CaATP-G-actin", "settings": "ref [6], cited from earlier work", "from_the_text": "Transglutaminase (TGase) catalyzes the formation of isopeptide bonds, which cross-links proximal glutamine and lysine residues in proteins. The TGase reaction produces both intramolecular cross-links in proteins and intermolecular cross-links between proteins and peptides."}, "[9]": {"system": "CaATP-G-actin (skeletal muscle)", "settings": "ref [9]; cited from earlier work", "procedure": "The pK of histidine is around pH 6.5 depending on the environment of the residue in the protein structure. This means that its charge changes with pH in the neutral pH region. Histidine is positively charged at slightly acidic pH and neutral above pH 7.0. Since actin polymerization is dependent on the number of positive charges of the polymerizing agent, the effect of pH 6.5, 7.4 and 8.2 on the polymerization of G-actin by histatins was measured (Fig. 1d)."}, "[10]": {"system": "CaATP-G-actin (skeletal muscle)", "assay": "Actin polymerization, pyrene-actin fluorescence kinetics", "format": "biochemical, rabbit", "settings": "4 μM CaATP-G-actin; 8 μM histatin-3, 20 μM histatin-5, 7 μM LL-37; pH 6.5, 7.4 and 8.2; 22 °C", "procedure": "Labeling of Mg-F-actin at Cys-374 with pyrene maleimide was carried out according to Kouyama and Mihashi with some modifications. CaATP-G-actin was filtered through a PD-10 column (GE Healthcare) equilibrated with β-mercaptoethanol-free CaATP-G-buffer. After filtration, G-actin (1 mg/ml) was polymerized by 2 mM MgCl2 and 100 mM KCl at 22 °C for 30 min, and reacted with pyrene maleimide (16 μg/ml) on ice, for 1 h. The reaction was terminated with 1 mM DTT. Labeled F-actin was centrifuged at 129,151 x g for 2 h; the pellet was resuspended in Ca-ATP-G-buffer and depolymerized by dialyzing in this buffer for 36 h at 4 °C with twice changing the buffer. Finally, actin was centrifuged again at 129,151 x g for 2 h. […] The concentration of modified actin was determined by the procedure of Bradford using unmodified actin as a standard. The extent of labeling was determined by using pyrene extinction coefficient E344 nm = 22,000 cm^−1M^−1, was ~100%.\nActin polymerization was followed by fluorescence increase (at 365 nm excitation and 386 nm emission wavelengths) of pyrene-labeled G-actin [17], which was added to unlabeled G-actin in 10–15%. The kinetics of bundling of MgF−actin was monitored by increase in light scattering, with both excitation and emission wavelengths adjusted to 450 nm. All fluorescence and light scattering measurements were carried out at 22 °C. […]"}, "F-actin bundles": {"system": "F-actin bundles", "settings": "ref [9]; cited from earlier work", "from_the_text": "Both DNase1 and cofilin are actin binding proteins. DNase1 depolymerizes F-actin filament by binding to the protomer at the filaments ends and forming a tight complex with the protomer by attachment to its DNase1 binding loop (D-loop). […] Cofilin disassembles actin bundles by severing the filaments through its effect on the structure of actin protomers [[19] ..."}, "TG-G-actin [11]": {"system": "TG-G-actin", "settings": "ref [6]; cited from earlier work", "from_the_text": "TGase catalyzes covalent cross-linking of glutamine and lysine residues in proteins. Since in the histatin-G-actin cross-linking reaction only actin contains glutamine residues, it follows that actin should be the glutamine donor in this case. […] Gln41 seems to be the preferred candidate for this role sinc ..."}, "actin": {"system": "actin", "settings": "cited from earlier work", "from_the_text": "Actin is a negatively charged structural protein and the most abundant protein in the eukaryotic cells. Actin, released from dead cells, is also present in the saliva. Actin has important roles in cytoskeleton formation, cell division, motility, adhesion, signaling and more. Actin exists in either monomer globular (G) or polymer filament (F) form, which are interconvertible into each other."}, "[12]": {"settings": "4 μM G- or F-actin, 8 μM histatin-3 or 6 μM LL-37, 0.4 mg/ml TGase"}}, "note": "pEC50: −log10 of the molar value. No end group written: not given here."}
{"molecule": "CC(C)C[C@H](NC(=O)[C@H](Cc1ccc(O)cc1)NC(=O)[C@H](CC(N)=O)NC(=O)[C@H](CO)NC(=O)[C@H](CCCNC(=N)N)NC(=O)[C@H](Cc1ccc(O)cc1)NC(=O)CNC(=O)[C@H](CCCNC(=N)N)NC(=O)[C@H](Cc1c[nH]cn1)NC(=O)[C@H](CO)NC(=O)[C@H](Cc1c[nH]cn1)NC(=O)[C@H](Cc1c[nH]cn1)NC(=O)[C@H](CCCCN)NC(=O)[C@H](CCC(=O)O)NC(=O)[C@H](Cc1c[nH]cn1)NC(=O)[C@H](Cc1ccccc1)NC(=O)[C@H](CCCCN)NC(=O)[C@H](CCCNC(=N)N)NC(=O)[C@H](CCCCN)NC(=O)[C@H](Cc1ccc(O)cc1)NC(=O)CNC(=O)[C@H](Cc1c[nH]cn1)NC(=O)[C@H](Cc1c[nH]cn1)NC(=O)[C@H](CCCNC(=N)N)NC(=O)[C@H](CCCCN)NC(=O)[C@H](C)NC(=O)[C@H](Cc1c[nH]cn1)NC(=O)[C@H](CO)NC(=O)[C@@H](N)CC(=O)O)C(=O)N[C@@H](Cc1ccc(O)cc1)C(=O)N[C@@H](CC(=O)O)C(=O)N[C@@H](CC(N)=O)C(=O)O", "note": "[histatin-3]", "values": [{"measurement": "pEC50", "setting": "MgF-actin [1]", "result": 5.30}]}
{"molecule": "Fl-LL-37: tetramethylrhodamine labeled LL-37", "values": [{"measurement": "effect of phalloidin on extent of F-actin cross-linking", "setting": "MgF-actin [2]", "result": "reduces greatly"}]}
{"molecule": "Fl-histatin-3: tetramethylrhodamine labeled histatin-3 (DSHAKRHHGYKRKFHEKHHSHRGYRSNYLYDN; also: tetramethylrhodamine label, position not given here)", "values": [{"measurement": "effect of NaCl on cross-linking to G-actin", "setting": "G-actin [3]", "result": "NaCl inhibited the cross-linking"}, {"measurement": "cross-linked product with TGase pretreated vs untreated G-actin", "setting": "TG-G-actin [4]", "result": "slightly less actin Fl-histatin-3 cross-linked products formed with TGase pretreated than with untreated G-actin"}, {"measurement": "cross-linking site in the D-loop of G-actin", "setting": "TG-G-actin [4]", "result": "Gln-49 is the main glutamine donor in the D-loop of actin"}, {"measurement": "cross-linking to subtilisin fragments (Asp1-Met47 N-terminal, Gly48-Phe375 C-terminal)", "setting": "[5]", "result": "both fragments can be cross-linked"}, {"measurement": "cross-linking to Tyr69-Arg372 C-terminal tryptic fragment", "setting": "[5]", "result": "can be also cross-linked"}, {"measurement": "effect of phalloidin on extent of F-actin cross-linking", "setting": "MgF-actin [2]", "result": "reduces greatly"}]}
{"molecule": "Fl-histatin-5: FAM labeled histatin-5", "values": [{"measurement": "effect of NaCl on cross-linking to G-actin", "setting": "G-actin [3]", "result": "NaCl inhibited the cross-linking"}, {"measurement": "inhibitory effect of cofilin on cross-linking, comparison of peptides", "setting": "G-actin [3]; cofilin, TGase 5 min", "result": "less Fl-histatin-5 than with Fl-histatin-3"}, {"measurement": "quantity of cross-linked product with G-actin, comparison", "setting": "CaATP-G-actin [6]; 4 μM CaATP-G-actin, 4–8 μM Fl-histatin, 0.3 mg/ml TGase", "result": "consistently greater than that of Fl-histatin-3"}, {"measurement": "extent of cross-linking to both G- and F-actin, comparison", "setting": "CaATP-G-actin [6]; 4 μM G- and F-actin, 6 μM Fl-histatin, 0.3 mg/ml TGase", "result": "larger than that of Fl-histatin-3"}, {"measurement": "cross-linked product with TGase pretreated vs untreated G-actin", "setting": "TG-G-actin [4]", "result": "the same amount of cross-linked product formed"}, {"measurement": "cross-linking site in the D-loop of G-actin", "setting": "TG-G-actin [4]", "result": "does not cross-link to Gln41 of G-actin"}, {"measurement": "cross-linking to subtilisin fragments (Asp1-Met47 N-terminal, Gly48-Phe375 C-terminal)", "setting": "[5]", "result": "cross-linked only to the C- but not to the N-terminal G-actin fragment"}, {"measurement": "cross-linking to Tyr69-Arg372 C-terminal tryptic fragment", "setting": "[5]", "result": "can be also cross-linked"}]}
{"molecule": "LLGDFFRKSKEKIGKEFKRIVQRIKDFLRNLVPRTES [LL-37]", "values": [{"measurement": "effect of 200 mM NaCl on extent of cross-linking by LL-37", "setting": "G-actin [7]", "result": "did not affect the extent of cross-linking"}, {"measurement": "cross-linking of LL-37 to actin by TGase", "setting": "CaATP-G-actin [8]; [25]", "result": "can be cross-linked to actin by TGase"}, {"measurement": "binding site on actin", "setting": "CaATP-G-actin [8]", "result": "binds preferentially to the D-loop of actin"}, {"measurement": "concentration at which G-actin is polymerized at neutral pH", "setting": "[9]", "result": "at about the same concentration as histatin-3"}, {"measurement": "effect of pH on kinetics of actin polymerization", "setting": "[10]", "result": "much less pH-dependent than the polymerization by histatins"}, {"measurement": "cross-linking to G- and F-actin by TGase", "setting": "CaATP-G-actin [6]; [12]", "result": "cross-linked to both G- and F-actin like LL-37"}, {"measurement": "disassembly of polycation induced actin bundles by DNase1 and cofilin", "setting": "F-actin bundles", "result": "DNase1 and cofilin disassemble LL-37 and lysozyme -induced actin bundles"}, {"measurement": "cross-linking site of LL-37 on actin", "setting": "TG-G-actin [11]", "result": "preferentially cross-linked to Gln-49"}, {"measurement": "polymerization and bundling of actin, LL-37", "setting": "actin; ref [9]", "result": "polymerize G-actin to F actin and bundle F-actin into actin bundles"}, {"measurement": "extent of cross-link formation with F-actin vs G-actin", "setting": "MgF-actin [2]; [12]", "result": "significantly less than with G-actin"}, {"measurement": "effect of pH on extent of F-actin bundling", "setting": "MgF-actin [1]; 8 μM MgF-actin, 5 μM histatin-3, 12 μM histatin-5, 5 μM LL-37, pH 6.5, 7.3 and 8.2 (Fig. 2d), 3–16 μM histatins at pH 6.5 and 7.4 (Fig. S1)", "result": "contrary to the bundling by LL-37"}]}
{"molecule": "lysozyme: positively charged protein that interacts with actin", "values": [{"measurement": "polymerization and bundling of actin, lysozyme", "setting": "actin; ref [8]", "result": "polymerize G-actin to F actin and bundle F-actin into actin bundles"}]}
